The values below are quoted from earlier work in patent publication US20100166671A1, “ORGANIC COMPOUNDS” (priority 2006, published 2010).

The conditions of this series: single administration of a metered dose, aerosol formulation, treating asthma.

On to `C[N+]1(C)CCC(OC(=O)C(O)(c2ccccc2)C2CCCC2)C1.[Br-]` (stereo not shown) [glycopyrrolate, 3-[(cyclopentyl-hydroxyphenylacetyl)oxy]-1,1-dimethylpyrrolidinium bromide], for which the duration of bronchodilation result is “up to 12 hours”.
